Test results from ChEMBL document CHEMBL1177813, “Design and synthesis of trivalent ligands targeting opioid, cholecystokinin, and melanocortin receptors for the treatment of pain” (Bioorg Med Chem Lett, 2010).
The source made the active and inactive calls. The calls are words filed in the database; no cut-off is given here.

How the values were obtained:
Mu-type opioid receptor = Mu-type opioid receptor (Rattus norvegicus, UniProt P33535); experiment: Displacement of [3H]DAMGO from rat mu opioid receptor expressed in mouse HN9.10 cells; assay type: cell-based
[1] = molecular target: T1, Gastrin/cholecystokinin type B receptor (Homo sapiens, UniProt P32239); experiment: Displacement of [125I]CCK-8(SO3) from human CCK2 receptor expressed in human HEK293 cells; assay type: cell-based
T1 sequence (P32239 whole entry): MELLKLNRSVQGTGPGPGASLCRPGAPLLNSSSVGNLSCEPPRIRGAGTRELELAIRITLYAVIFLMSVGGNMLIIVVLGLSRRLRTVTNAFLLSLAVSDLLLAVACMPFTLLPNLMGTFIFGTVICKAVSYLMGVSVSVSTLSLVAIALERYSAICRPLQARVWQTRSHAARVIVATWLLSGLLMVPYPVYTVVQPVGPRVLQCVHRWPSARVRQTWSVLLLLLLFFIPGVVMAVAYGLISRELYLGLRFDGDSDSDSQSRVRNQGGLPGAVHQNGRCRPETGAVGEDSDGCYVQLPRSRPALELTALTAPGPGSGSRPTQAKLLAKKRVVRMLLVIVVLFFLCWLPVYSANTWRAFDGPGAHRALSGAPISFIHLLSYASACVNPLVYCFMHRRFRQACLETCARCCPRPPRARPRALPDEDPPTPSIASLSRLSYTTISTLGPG

Cavia porcellus = species: Cavia porcellus; experiment: […] activity at CCK receptor in Hartley guinea pig ileum longitudinal muscle with myenteric plexus assessed as inhibition of CCK8-stimulated muscle contraction at 1 uM; assay type: functional, tissue-based
[2] = molecular target: Delta-type opioid receptor (Mus musculus, UniProt P32300); experiment: Antagonist activity at delta opioid receptor in mouse vas deferens assessed as inhibition of DPDPE-induced muscle contraction; assay type: functional, tissue-based
[3] = molecular target: T2, Cholecystokinin receptor type A (Homo sapiens, UniProt P32238); experiment: Displacement of [125I]CCK-8(SO3) from human CCK1 receptor expressed in human HEK293 cells; assay type: cell-based
T2 sequence (P32238 whole entry): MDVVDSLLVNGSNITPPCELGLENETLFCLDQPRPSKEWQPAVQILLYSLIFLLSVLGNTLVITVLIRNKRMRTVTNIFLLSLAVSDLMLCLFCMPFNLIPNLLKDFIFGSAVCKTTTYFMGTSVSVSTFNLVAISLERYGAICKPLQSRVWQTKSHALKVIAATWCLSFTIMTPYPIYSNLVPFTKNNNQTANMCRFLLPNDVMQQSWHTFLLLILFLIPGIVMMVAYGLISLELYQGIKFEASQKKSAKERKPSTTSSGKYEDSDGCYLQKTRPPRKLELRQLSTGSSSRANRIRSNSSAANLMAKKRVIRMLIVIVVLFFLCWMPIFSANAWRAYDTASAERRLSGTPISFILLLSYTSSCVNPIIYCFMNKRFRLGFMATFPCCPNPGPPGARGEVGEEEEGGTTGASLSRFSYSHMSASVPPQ

[4] = molecular target: Delta-type opioid receptor (Homo sapiens, UniProt P41143); experiment: Displacement of [3H]DPDPE from human delta opioid receptor expressed in mouse HN9.10 cells; assay type: cell-based
[5] = molecular target: Mu-type opioid receptor (Cavia porcellus) (UniProt P97266); experiment: Agonist activity at mu opioid receptor in guinea pig ileum assessed as inhibition of electrically-stimulated muscle contraction at 1 uM; assay type: functional, tissue-based; design: scale not given: the % may be the effect or the level left
[6] = Agonist activity at CCK receptor in Hartley guinea pig ileum longitudinal muscle with myenteric plexus assessed as inhibition of electrically-stimulated muscle contraction at 1 uM relative to KCl; assay type: functional, Cavia porcellus; design: scale not given: the % may be the effect or the level left
Melanocortin receptor 4 = Melanocortin receptor 4 (Homo sapiens, UniProt P32245); experiment: Displacement of Eu-NDP-alphaMSH from human MC4 receptor expressed in human HEK293 cells; assay type: cell-based
Sequence of Melanocortin receptor 4 (P32245 whole entry): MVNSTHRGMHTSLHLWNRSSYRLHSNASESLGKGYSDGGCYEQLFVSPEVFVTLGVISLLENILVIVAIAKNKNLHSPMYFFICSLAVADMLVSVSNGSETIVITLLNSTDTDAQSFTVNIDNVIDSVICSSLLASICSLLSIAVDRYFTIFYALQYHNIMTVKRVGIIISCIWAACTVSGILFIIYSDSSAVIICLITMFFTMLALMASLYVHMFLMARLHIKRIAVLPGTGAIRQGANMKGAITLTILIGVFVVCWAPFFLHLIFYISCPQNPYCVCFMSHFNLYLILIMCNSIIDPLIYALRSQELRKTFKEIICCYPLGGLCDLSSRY

Sequence of Delta-type opioid receptor (Homo sapiens, UniProt P41143) (P41143 whole entry): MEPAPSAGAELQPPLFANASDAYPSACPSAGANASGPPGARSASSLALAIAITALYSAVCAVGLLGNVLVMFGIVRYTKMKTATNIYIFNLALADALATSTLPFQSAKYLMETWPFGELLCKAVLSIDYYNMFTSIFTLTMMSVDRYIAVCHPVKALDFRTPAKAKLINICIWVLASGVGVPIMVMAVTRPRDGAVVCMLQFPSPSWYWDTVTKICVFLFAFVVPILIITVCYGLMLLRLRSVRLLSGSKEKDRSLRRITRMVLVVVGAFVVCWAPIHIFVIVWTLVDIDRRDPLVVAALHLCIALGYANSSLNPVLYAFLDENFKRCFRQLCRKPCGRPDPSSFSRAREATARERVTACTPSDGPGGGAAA
Sequence of Mu-type opioid receptor (P33535 whole entry): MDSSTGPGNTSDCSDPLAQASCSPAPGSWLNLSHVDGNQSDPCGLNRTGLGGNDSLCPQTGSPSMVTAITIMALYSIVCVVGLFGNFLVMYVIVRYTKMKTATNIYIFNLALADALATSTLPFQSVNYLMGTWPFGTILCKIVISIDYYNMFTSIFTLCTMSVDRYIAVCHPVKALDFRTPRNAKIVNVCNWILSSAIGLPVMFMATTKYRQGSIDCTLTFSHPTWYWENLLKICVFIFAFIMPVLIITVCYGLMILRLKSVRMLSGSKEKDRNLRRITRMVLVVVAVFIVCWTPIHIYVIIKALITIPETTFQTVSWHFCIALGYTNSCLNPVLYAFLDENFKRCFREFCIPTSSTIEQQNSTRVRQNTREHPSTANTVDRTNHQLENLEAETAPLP
Sequence of Delta-type opioid receptor (Mus musculus, UniProt P32300) (P32300 whole entry): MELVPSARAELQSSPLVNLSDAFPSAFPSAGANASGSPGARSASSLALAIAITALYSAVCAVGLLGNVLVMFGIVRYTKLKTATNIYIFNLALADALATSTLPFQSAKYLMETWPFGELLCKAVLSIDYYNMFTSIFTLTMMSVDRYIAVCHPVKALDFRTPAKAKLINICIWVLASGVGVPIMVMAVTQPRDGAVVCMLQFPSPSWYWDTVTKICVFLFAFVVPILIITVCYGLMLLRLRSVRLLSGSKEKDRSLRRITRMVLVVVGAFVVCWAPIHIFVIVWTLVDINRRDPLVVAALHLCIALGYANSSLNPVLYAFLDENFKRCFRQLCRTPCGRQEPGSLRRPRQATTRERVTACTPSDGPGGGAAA
Sequence of Mu-type opioid receptor (Cavia porcellus) (P97266 whole entry): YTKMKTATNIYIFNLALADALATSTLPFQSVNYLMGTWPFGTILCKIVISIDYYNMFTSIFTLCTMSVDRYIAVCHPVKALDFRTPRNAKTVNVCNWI

SMILES: CCCC[C@H](NC(=O)[C@H](Cc1c[nH]c2ccccc12)NC(=O)[C@H](CCCNC(=N)N)NC(=O)[C@@H](Cc1ccc2ccccc2c1)NC(=O)[C@H](Cc1cnc[nH]1)NC(=O)[C@@H]1Cc2ccccc2CN1C(=O)C(N)Cc1c(C)cc(O)cc1C)C(=O)N[C@@H](CC(=O)O)C(=O)N[C@@H](Cc1ccccc1)C(N)=O (single isomer, unassigned)
- IC50 (Mu-type opioid receptor): 100 nM
- Ki (Mu-type opioid receptor): 47 nM
- IC50 [1]: 200 nM
- Ki ([1]; read-out: Ki): 200 nM
- Ke (Cavia porcellus): inactive
- IC50 [2]: 2.5 nM
- IC50 [3]: 15.8 nM
- Ki ([3]; read-out: Ki): 15 nM
- IC50 [4]: 2 nM
- Ki [4]: 0.91 nM
- Activity [5]: 5%
- Activity [6]: 0%
- IC50 (Melanocortin receptor 4): 230 nM
